The test system of one assay is MIA PaCa-2. Put plainly: Antiausteritic activity against human MIAPaCa2 cells in nutrient deprived medium after 24 hrs by WST8 assay. The class given is functional.
For assay [1], the system named is PANC-1. Briefly: Antiausteritic activity against human PANC1 cells in nutrient deprived medium after 24 hrs by WST8 assay. In kind it is functional. In general terms: Tetrazolium assays rely on reduction of a dye to a coloured formazan, in cell work by metabolically active cells.
The next assay deals with CAPAN-1. Briefly: Antiausteritic activity against human Capan1 cells in nutrient deprived medium after 24 hrs by WST8 assay. The class given is functional.
The test system of another assay is PSN1. Briefly: Antiausteritic activity against human PSN1 cells in nutrient deprived medium after 24 hrs by WST8 assay. In kind it is functional.
For the next assay, the system named is KLM1. Briefly: Antiausteritic activity human KLM1 cells in nutrient deprived medium after 24 hrs by WST8 assay. The class given is functional.
Assay [2] relates to PANC-1. Put plainly: Antiausteritic activity against human PANC1 cells in nutrient deprived medium assessed as induction of morphological changes at 25 to 50 uM after 24 hrs by ethidium bromide/acridine orange staining based fluorescent/phase contrast microscopic method. The class given is functional, cell-based.

The source made the active and inactive calls. The rule behind the calls is not given here.

For `CCCCCCCCCCCCCCCCCC(=O)O[C@@H]1C=C(COC(=O)c2ccccc2)[C@@H](O)[C@H](O)[C@H]1OC(=O)c1ccccc1`, the Activity result in the assay on MIA PaCa-2, with PANC-1 [1], in the assay with CAPAN-1, with PSN1 and in the assay with KLM1 was “Dose-dependent effect” in each case.

For `O=C(OCC1=C[C@@H](OC(=O)c2ccccc2)[C@H](O)[C@@H](OC(=O)c2ccccc2)[C@@H]1O)c1ccccc1`, the outcome in the assay on PANC-1 [2] was Active. For the same molecule, the Activity entry with MIA PaCa-2, in the assay with PANC-1 [1], in the assay on CAPAN-1, in the assay on PSN1 and in the assay on KLM1 was “Dose-dependent effect” each time. For the same molecule, the PC50 in the assay with MIA PaCa-2 was determined as 29.1 µM; in the assay with PANC-1 [1], 20.1 µM; with CAPAN-1 it was 73 µM; in the assay on PSN1, 9.7 µM.

Regarding `O=C(OCC1=C[C@@H](OC(=O)c2ccccc2)[C@H](OC(=O)c2ccccc2)[C@@H](O)[C@@H]1O)c1ccccc1`, the Activity result in the assay with MIA PaCa-2, with PANC-1 [1], in the assay with CAPAN-1, in the assay with PSN1 and with KLM1 was “Dose-dependent effect” in each case.

In the case of `CCCCCCCCCCCCCCCCCC(=O)O[C@@H]1C=C(COC(=O)c2ccccc2)[C@@H](O)[C@H](OC(=O)c2ccccc2)[C@H]1O`, the Activity result in the assay on MIA PaCa-2, in the assay on PANC-1 [1], in the assay on CAPAN-1, in the assay with PSN1 and with KLM1 was “Dose-dependent effect” each time.

For the origin of these results see ChEMBL document CHEMBL4014293, “Highly oxygenated antiausterity agents from the leaves of Uvaria dac” (2017).
